According to article PMC11093748, “De novo identification of CD4^+ T cell epitopes” (Nature Methods, 2024):

Columns and labels:
Jurkat cells, No TCR = assay: Single SABR-II co-incubation, background without TCR; type: cell-based, human
Method in brief: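 Single SABR-II constructs for putative cognate epitopes were expressed in CellTrace Violet-labelled NFAT–GFP Jurkat cells and co-incubated 1:1 (5 × 10^5 each) with TCR-expressing Jurkat cells for 16–20 h. GFP (with CD69 staining when indicated) was measured by flow cytometry. Wells with GFP above the no-TCR control were scored positive.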

TCR37 = assay: mIL-2 ELISA, TCR-expressing 5KC cells with SABR NFAT-GFP Jurkat cells; type: cell-based, mouse; conditions: murine IL-2 ELISA, 24 hr co-incubation
TCR3 = assay: Single SABR-II co-incubation, NFAT-GFP Jurkat; type: cell-based, mouse; conditions: TCR 3, Fig 5C
From the text: Given the predominance of HIP-reactive TCRs, we hypothesized that there may be other TCRs that respond to HIPs that were not encoded in our initial library configuration. While the initial I-Ag7 SABR-II library consisted of a number of HIPs, HIP formation is thought to be more widespread in pancreatic β-cells[52],[70]. Therefore, we sought to construct a defined, HIP-focused library to probe whether there were any undiscovered HIP-reactive TCRs that could be recognized by the clonally expanded TCR in our dataset. To test this, we utilized a published proteomic dataset, which predicted that several proteins that were highly expressed in secretory granules of β-cells may contribute to HIP formation. Using their predictions, we built a theoretical HIP library, in which all possible ‘left’ halves of the insulin C chain derived from natural cleavage products were fused to ‘right’ halves derived from secretory granule proteins (Fig. 5a). This 2,561-epitope library (12–25 amino acids per epitope) consisted of only HIPs and a small number of positive control epitopes (Supplementary Table 5). We screened the top three clonally expanded TCRs (TCR1, TCR2 and TCR3) against this library, as these TCRs had not been de-convoluted using the original library. […] To confirm that the HIP itself was important for the cognate interaction, we cloned single 14-mer epitopes into SABR-IIs consisting of seven amino acids of the left portion of the HIP and seven amino acids of the right portion of the HIP. In this way, no nine amino acids from either peptide sequence alone could occupy the binding pocket of I-Ag7, ensuring that TCR reactivity spanned the HIP junction. […] Of note, in all the epitopes that were tested, the ‘left’ half derived from insulin C was conserved, whereas the ‘right’ halves were derived from several other proteins (Fig. 5d). […] Moreover, the promiscuous binding of TCR3 to HIPs corroborates evidence from other NOD mouse-derived TCRs reacting to multiple HIPs[72].
For SABR library screens, 3 × 10^6 NFAT–GFP Jurkat cells expressing the SABR library were labeled with CellTrace Violet (BioLegend) according to the manufacturer’s protocol before incubation with 3 × 10^6 Jurkat cells expressing the TCR of interest. These mixtures were incubated in a six-well plate for 16–20 h. Cells were stained with anti-CD69-APC-Cy7 where indicated (BioLegend) and the top 1–2% of GFP^+CD69^+ cells were sorted for genomic DNA extraction, indexing and sequencing (see below). Multiplexed assays were scaled on a per-TCR basis (for example 3 × 10^6 for each of three TCRs against 9 × 10^6 library cells). For single SABR assays, unless otherwise defined, 5 × 10^5 SABR expressing NFAT–GFP Jurkat cells (or 5KC cells) were labeled with CellTrace Violet (BioLegend) according to the manufacturer’s protocol before incubation with 5 × 10^5 TCR-expressing Jurkat cells (or 5KC cells) in a round-bottom 96-well plate for 16–20 h. Cells were stained with anti-CD69-APC-Cy7 when indicated and acquired on the Attune NxT flow cytometer (Thermo Fisher Scientific). All flow analysis was performed using FlowJo (BD). For Daudi cell co-culture, 1 × 10^6 Jurkat cells expressing the TCR of interest were incubated with 1 × 10^6 Daudi cells expressing a SABR of interest for 3 days. On day 3, cells were labeled with anti-RT1B-PE and anti-Fas-APC-Cy7 before being acquired on the Attune NxT flow cytometer.

[1] = No TCR, Fig 3B, 18 h, biological replicate 1
[2] = No TCR, Fig 3B, 18 h, biological replicate 2
[3] = No TCR, Fig 3B, 18 h, biological replicate 3
[4] = No TCR, Fig 4B, technical replicate 1
[5] = No TCR, Fig 4B, technical replicate 2

Sequence	%GFP+CD69+ cells of SABR-NFAT-GFP-Jurkat cells (Jurkat cells, No TCR; Mock TCR, Fig 4B, technical replicate 1) [%]	%GFP+CD69+ cells of SABR-NFAT-GFP-Jurkat cells (Jurkat cells, No TCR; Mock TCR, Fig 4B, technical replicate 2) [%]	%GFP+CD69+ cells of SABR-NFAT-GFP-Jurkat cells (Jurkat cells, No TCR; [1]) [%]	%GFP+CD69+ cells of SABR-NFAT-GFP-Jurkat cells (Jurkat cells, No TCR; [2]) [%]	%GFP+CD69+ cells of SABR-NFAT-GFP-Jurkat cells (Jurkat cells, No TCR; [3]) [%]	%GFP+CD69+ cells of SABR-NFAT-GFP-Jurkat cells (Jurkat cells, No TCR; [4]) [%]	%GFP+CD69+ cells of SABR-NFAT-GFP-Jurkat cells (Jurkat cells, No TCR; [5]) [%]	%GFP+CD69+ cells of SABR-NFAT-GFP-Jurkat cells (Jurkat cells, No TCR; No TCR, Fig 4B, technical replicate 3) [%]	IL-2 secretion (TCR37; technical replicate 1)	IL-2 secretion (TCR37; technical replicate 2)	%GFP+CD69+ cells of SABR-NFAT-GFP-Jurkat cells (TCR3; technical replicate 1) [%]	%GFP+CD69+ cells of SABR-NFAT-GFP-Jurkat cells (TCR3; technical replicate 2) [%]	%GFP+CD69+ cells of SABR-NFAT-GFP-Jurkat cells (Jurkat cells, No TCR; No TCR, Ext. Data Fig. 6C, 18-20 hr, technical replicate 1) [%]	%GFP+CD69+ cells of SABR-NFAT-GFP-Jurkat cells (Jurkat cells, No TCR; No TCR, Ext. Data Fig. 6C, 18-20 hr, technical replicate 2) [%]	%GFP+CD69+ cells of SABR-NFAT-GFP-Jurkat cells (Jurkat cells, No TCR; No TCR, Fig 5C, technical replicate 1) [%]	%GFP+CD69+ cells of SABR-NFAT-GFP-Jurkat cells (Jurkat cells, No TCR; No TCR, Fig 5C, technical replicate 2) [%]
SHLVEALYLVCGERG	3.46	3.03	2	3.5	1.84	0.93	1.04	1.2	37.8351	38.2928						
LQTLALNAARDP			2.51	6.93	3.6	1.39	1.36				0.94	0.89	3.08	3.07	0.73	0.75
